Measurements reported in patent publication US20240166652A1, “MODULATORS OF THE INTEGRATED STRESS PATHWAY” (Calico Life Sciences LLC, priority 2017, published 2024).

test system: ATF4 luciferase reporter in HEK293T cells; assay: ATF4-Luc assay (ATF4 luciferase reporter, tunicamycin-treated HEK293T cells); type: cell-based, human; conditions: Homo sapiens, HEK-293T; HEK293T cells carrying the ATF4 luciferase reporter, 1 μg/mL tunicamycin, 7 hours

Row | SMILES | EC50 [nM]
1 | O=C(COc1cc(F)c2cn[nH]c2c1)NC12CCC(NC(=O)COc3ccc(Cl)cc3)(CC1)[C@@H](O)C2 [Compound 725, 2-(4-chlorophenoxy)-N-[(25)-4-{2-[(4-fluoro-1H-indazol-6-yl)oxy]acetamido}-2-hydroxybicyclo[2.2.2]octan-1-yl]acetamide] | < 10
2 | CN(C)c1ccc(CC(=O)NC23CCC(NC(=O)COc4ccc(Cl)c(F)c4)(CC2)CC3O)cc1 (centres unmarked) [Compound 320, 2-(4-chloro-3-fluorophenoxy)-N-(4-{2-[4-(dimethylamino)phenyl]acetamido}-3-hydroxybicyclo[2.2.2]octan-1-yl)acetamide] | 500 to 2000
3 | Cc1cc(OCC(=O)NC23CC(NC(=O)COc4ccc(Cl)c(F)c4)(C2)C3)n(C)n1 [Compound 385, 2-(4-chloro-3-fluorophenoxy)-N-(3-{2-[(1,3-dimethyl-1H-pyrazol-5-yl)oxy]acetamido}bicyclo[1.1.1]pentan-1-yl)acetamide] | 500 to 2000
4 | Cc1ccc(OCC(=O)NC23CCC(NC(=O)COc4ccc(F)c(F)c4)(CC2)[C@@H](O)C3)cc1 [Compound 788, 2-(3,4-difluorophenoxy)-N-{(2S)-2-hydroxy-4-[2-(4-methylphenoxy)acetamido]bicyclo[2.2.2]octan-1-yl}acetamide] | < 10
5 | Cc1ccc(COCC(=O)NC23CC(NC(=O)COc4ccc(Cl)c(Cl)c4)(C2)C3)cc1 [Compound 160, 2-(3,4-dichlorophenoxy)-N-(3-{2-[(4-methylphenyl)methoxy]-acetamido}bicyclo[1.1.1]pentan-1-yl)acetamide] | 50 to 250
6 | O=C(COc1ccnc(C(F)(F)F)c1)NC12CC(NC(=O)COc3ccc(Cl)c(F)c3)(C1)C2 [Compound 233, 2-(4-chloro-3-fluorophenoxy)-N-[3-(2-{[2-(trifluoromethyl)pyridin-4-yl]oxy}acetamido)bicyclo[1.1.1]pentan-1-yl]acetamide] | 10 to 50
7 | O=C(CNC(=O)OCc1ccccc1)NC12CC(NC(=O)COc3ccc(Cl)c(F)c3)(C1)C2 [Compound 304, benzyl [2-({3-[2-(4-chloro-3-fluorophenoxy)acetamido]bicyclo[1.1.1]pentan-1-yl}amino)-2-oxoethyl]carbamate] | 500 to 2000
8 | CS(=O)(=O)c1ccc(OCC(=O)NC23CCC(NC(=O)COc4ccc5c(c4)OC(F)(F)O5)(CC2)[C@@H](O)C3)cc1F [Compound 766, 2-[(2,2-difluoro-2H-1,3-benzodioxol-5-yl)oxy]-N-[(2S)-4-{2-[3-fluoro-4-(methanesulfonyl)phenoxy]acetamido}-2-hydroxybicyclo[2.2.2]octan-1-yl]acetamide] | 50 to 250
9 | O=C(COc1ccc(Cl)c(Cl)c1)NC12CC(NC(=O)COc3ccc(Cl)c(Cl)c3)(C1)C2 [Compound 106, N,N′-(bicyclo[1.1.1]pentane-1,3-diyl)bis[2-(3,4-dichlorophenoxy)acetamide]] | < 10
10 | O=C(COc1ccc2ccccc2c1)NC12CCC(NC(=O)COc3ccc(Cl)c(F)c3)(CC1)[C@@H](O)C2 [Compound 472, 2-(4-chloro-3-fluorophenoxy)-N-[(2S)-2-hydroxy-4-{2-[(naphthalen-2-yl)oxy]acetamido}bicyclo[2.2.2]octan-1-yl]acetamide] | < 10
11 | O=C(COc1ccc(F)c(F)c1)NC12CC(NC(=O)COc3ccc(Cl)c(F)c3)(C1)C2 [Compound 183, 2-(4-chloro-3-fluorophenoxy)-N-{3-[2-(3,4-difluorophenoxy)acetamido]-bicyclo[1.1.1]pentan-1-yl}acetamide] | < 10
12 | O=C(COc1ccc(Cl)c(F)c1)NC12CCC(NC(=O)Cc3cccnc3)(CC1)C(O)C2 (centres unmarked) [Compound 324, 2-(4-chloro-3-fluorophenoxy)-N-{3-hydroxy-4-[2-(pyridin-3-yl)acetamido]bicyclo[2.2.2]octan-1-yl}acetamide] | > 2000
13 | O=C(COc1ccccn1)NC12CCC(NC(=O)COc3cccc(Cl)c3)(CC1)[C@@H](O)C2 [Compound 662, 2-(3-chlorophenoxy)-N-[(2S)-2-hydroxy-4-{2-[(pyridin-2-yl)oxy]acetamido}bicyclo[2.2.2]octan-1-yl]acetamide] | 250 to 500
14 | O=C(COc1ccc(Cl)c(F)c1)NC12CC(NC(=O)Oc3ccc(Cl)cc3)(C1)C2 [Compound 434, 4-chlorophenyl {3-[2-(4-chloro-3-fluorophenoxy)acetamido]bicyclo[1.1.1]pentan-1-yl}carbamate] | 250 to 500
15 | O=C(COc1ccc(Cl)c(F)c1)NC12CC(NC(=O)C(CCO)Oc3ccc(Cl)cc3)(C1)C2 (centres unmarked) [Compound 827, N-{3-[2-(4-chloro-3-fluorophenoxy)acetamido]bicyclo[1.1.1]pentan-1-yl}-2-(4-chlorophenoxy)-4-hydroxybutanamide] | 50 to 250
16 | Nc1cc(OCC(=O)NC23CC(NC(=O)COc4ccc(Cl)c(F)c4)(C2)C3)ccc1Cl [Compound 228, 2-(3-amino-4-chlorophenoxy)-N-{3-[2-(4-chloro-3-fluorophenoxy)acetamido]-bicyclo[1.1.1]pentan-1-yl}acetamide] | < 10
17 | O=C(COc1ccc(Cl)c(F)c1)NC12CCC(NC(=O)COc3ccc(Cl)c(Cl)c3)(CC1)[C@@H](O)C2 [Compound 452, 2-(4-chloro-3-fluorophenoxy)-N-{(3S)-4-[2-(3,4-dichlorophenoxy)acetamido]-3-hydroxybicyclo[2.2.2]octan-1-yl}acetamide] | < 10
18 | CC(C)(C)c1ccc(OCC(=O)NC23CCC(NC(=O)COc4ccc(Cl)c(F)c4)(CC2)[C@@H](O)C3)cc1 [Compound 477, 2-(4-tert-butylphenoxy)-N-{(3S)-4-[2-(4-chloro-3-fluorophenoxy)acetamido]-3-hydroxybicyclo[2.2.2]octan-1-yl}acetamide] | > 2000
19 | COCC(Oc1ccc(Cl)c(F)c1)C(=O)NC12CC(NC(=O)COc3ccc(Cl)c(F)c3)(C1)C2 (centres unmarked) [Compound 421, 2-(4-chloro-3-fluorophenoxy)-N-{3-[2-(4-chloro-3-fluorophenoxy)acetamido]bicyclo[1.1.1]pentan-1-yl}-3-methoxypropanamide] | 50 to 250
20 | O=C(COc1ccc(Cl)c(F)c1)NC12CC(NC(=O)[C@@H](CO)Oc3ccc(Cl)c(F)c3)(C1)C2 [Compound 418, (2R)-2-(4-chloro-3-fluorophenoxy)-N-{3-[2-(4-chloro-3-fluorophenoxy)acetamido]bicyclo[1.1.1]pentan-1-yl}-3-hydroxypropanamide] | 10 to 50
21 | O=C(COc1ccc(F)cc1)NC12CC(NC(=O)COc3ccc(Cl)cc3)(C1)C2 [Compound 120, 2-(4-chlorophenoxy)-N-{3-[2-(4-fluorophenoxy)acetamido]bicyclo-[1.1.1]pentan-1-yl}acetamide] | 10 to 50
22 | O=C(COc1ccc(Cl)c(F)c1)NC12CC(NC(=O)Cc3ccc(C(F)(F)F)nc3)(C1)C2 [Compound 342, 2-(4-chloro-3-fluorophenoxy)-N-(3-{2-[6-(trifluoromethyl)pyridin-3-yl]acetamido}bicyclo[1.1.1]pentan-1-yl)acetamide] | 250 to 500
23 | O=C(COc1ccc(F)c(F)c1)NC12CC(NC(=O)COc3ccc4c(c3)OC(F)(F)O4)(C1)C2 [Compound 379, 2-[(2,2-difluoro-2H-1,3-benzodioxol-5-yl)oxy]-N-{3-[2-(3,4-difluorophenoxy)acetamido]bicyclo[1.1.1]pentan-1-yl}acetamide] | < 10
